“Also recorded” adds a separate entry of the source. Where a SMILES comes first, the peptide text is derived from it. The star is where a group is joined. Cbz = O=C(OCc1ccccc1)*
Biological target: SARS-CoV-2 M^Pro (Severe acute respiratory syndrome coronavirus 2, UniProt P0DTD1, Q3569G)
Type: cell-based

Row | SMILES | cellular inhibition of M^Pro (in words)
1 | CCCC[C@@H](C=O)NC(=O)[C@H](CC(C)C)NC(=O)OCc1ccccc1 [calpeptin] | close to undetectable
2 | CCN(CCO)CCCC(C)Nc1ccnc2cc(Cl)ccc12 (stereo not drawn) [hydroxychloroquine] | relatively weak to undetectable; also recorded: close to undetectable
3 | CCCCCCNC(=O)n1cc(F)c(=O)[nH]c1=O [carmofur] | undetectable
4 | O=c1c2ccccc2[se]n1-c1ccccc1 [ebselen] | relatively weak to undetectable
5 | CCC[C@H](NC(=O)[C@@H]1[C@H]2CCC[C@H]2CN1C(=O)[C@@H](NC(=O)[C@@H](NC(=O)c1cnccn1)C1CCCCC1)C(C)(C)C)C(=O)C(=O)NC1CC1 [telaprevir] | close to undetectable
6 | CC(C)C[C@@H](C=O)NC(=O)[C@H](CC(C)C)NC(=O)[C@H](CC(C)C)NC(=O)OCc1ccccc1 [MG-132] (Cbz-Leu-Leu-Leu-aldehyde) | close to undetectable
7 | CC(C)(C)NC(=O)N[C@H](C(=O)N1C[C@H]2[C@@H]([C@H]1C(=O)NC(CC1CCC1)C(=O)C(N)=O)C2(C)C)C(C)(C)C (stereo partly drawn) [boceprevir] | close to undetectable; also recorded: very weak
8 | CCN(CC)CCCC(C)Nc1ccnc2cc(Cl)ccc12 (stereo not drawn) [chloroquine] | relatively weak to undetectable; also recorded: close to undetectable
9 | CC(C)COCC(CN(Cc1ccccc1)c1ccccc1)N1CCCC1 (stereo not drawn) [bepridil] | relatively weak to undetectable; also recorded: very weak inhibition; also recorded: close to undetectable

Source: paper PMC8848508 (ACS Central Science, 2022)
